Laboratory results reported in patent US20100203012A1, “IAP BIR DOMAIN BINDING COMPOUNDS” (Aegera Therapeutics, Inc., priority 2007, published 2010).

What was measured:
HCT116 cells = assay: Cytotoxicity assay (MTT) on HCT-116 cells co-treated with HGS-ETR1; format: cell-based; settings: Homo sapiens, co-treated with HGS-ETR1 40 ng/mL, 72 hours
Description: (§1) SKOV3 (ovarian) and HCT-116 (colon) cancer cells were cultured in McCoy's 5A media supplemented with 10% FBS and 100 units/mL of Penicillin and Streptomycin.
(§2) Cytotoxicity assays were performed on various cell lines including SKOV3 and HCT-116 cells. Cells were seeded in 96 well plates at a respective density of 2000 and 5000 cells per well and incubated at 37° C. in presence of 5% CO2 for 24 hours. Selected compounds were diluted into the media at various concentrations ranging from 0.01 nM up to 100 nM. Diluted compounds were added onto the SKOV3 cells. HCT-116 cells were co-treated with Trail receptor monoclonal antibody agonist (HGS-ETR^1, 40 ng/mL). After 72 hours, cellular viability was evaluated by MTT conversion. A solution of 3-(4,5-dimethylthiazol-2-yl)-2,5-diphenyltetrazolium bromide (MTT) was added onto cells for a period of 1 to 4 hours. Media was removed and replaced with isopropanol. Conversion of MTT by viable cells was detected by absorbance at 570 nm. The percentage of viability was expressed in percentage of the signal obtained with non treated cells.

SKOV3 cells = assay: Cytotoxicity assay (MTT) on SKOV3 cells; format: cell-based; settings: Homo sapiens, SK-OV-3, 72 hours, single agent
Description: as §1, §2

[1] = target: T1, XIAP BIR2-BIR3-ring (GST-linker BIR 2 BIR3Ring) (Homo sapiens, UniProt P98170); assay: Fluorescence polarization competition assay, BIR2-BIR3-ring, probe P2; format: binding; settings: ki derived from IC50, read-out: ki in the BIR2-BIR3-ring FP assay
T1 construct: made in house; host or cells: Escherichia coli DH5-alpha
T1 sequence (P98170 93-497): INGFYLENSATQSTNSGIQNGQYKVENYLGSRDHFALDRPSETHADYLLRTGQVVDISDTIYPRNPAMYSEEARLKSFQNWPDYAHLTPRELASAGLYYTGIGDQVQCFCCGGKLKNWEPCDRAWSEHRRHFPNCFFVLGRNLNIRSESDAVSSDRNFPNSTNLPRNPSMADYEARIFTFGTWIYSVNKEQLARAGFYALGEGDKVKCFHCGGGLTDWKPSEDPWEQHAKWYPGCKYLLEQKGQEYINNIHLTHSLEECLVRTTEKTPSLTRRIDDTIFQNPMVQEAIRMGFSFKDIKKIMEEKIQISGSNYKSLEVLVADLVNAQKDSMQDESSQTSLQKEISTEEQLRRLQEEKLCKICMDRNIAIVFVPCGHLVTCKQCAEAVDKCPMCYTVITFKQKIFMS
Description: GST-linker BIR 2 BIR3Ring: XIAP coding sequence from amino acids 93-497 cloned into PGex4T1 via BamH1 and XhoI. Amino acids 93-497 were amplified from full length XIAP in pGex4t3, using the primers: […] and GCTGCATGTGTGTCAGAGG, using standard PCR conditions. The PCR fragment was TA cloned into pCR-2.1 (invitrogen). Linker BIR 2 BIR 3Ring was subcloned into pGex4T1 by BamHI/XhoI digestion. The plasmid was transformed into E. coli DH5α for use in protein expression and purification.
For all assays, the fluorescence and fluorescence-polarization was evaluated using a Tecan Polarion instrument with the excitation filter set at 485 nm and the emission filter set at 535 nm. […] Upon establishing these conditions, the compounds potency (IC50) and selectivity, was assessed in the presence of a fix defined-amount of target protein and fluorescent probe and a 10 point serial dilution of the selected compounds. […] Auto-fluorescence for each compound was first assessed by performing a reading of the compound/BSA solution alone. Then 25 uL of the fluorescein probe (P1 or P2) diluted into 50 mM MES containing 0.05 mg/ml BSA were added and a reading to detect quenching of fluorescein signal done. Finally 25 uL/well of the target or control protein (GST-BIRs) diluted at the appropriate concentration in 50 mM MES containing 0.05 mg/ml BSA were added and the fluorescence polarization evaluated. […]

| SMILES | EC50 (HCT116 cells) | EC50 (SKOV3 cells) | Ki [1] |
| --- | --- | --- | --- |
| CN[C@@H](C)C(=O)N[C@H](C(=O)N1CCN(C(=O)c2ccc(C(=O)N3CCN(C(=O)[C@@H](NC(=O)[C@H](C)NC)C(C)(C)C)[C@H](C(=O)N[C@@H]4CCCc5ccccc54)C3)cc2)C[C@H]1C(=O)N[C@@H]1CCCc2ccccc21)C(C)(C)C [Compound 1] | < 50 nM | < 50 nM | – |
| CN[C@@H](C)C(=O)N[C@H](C(=O)N1CCN(C(=O)CNC(=O)c2ccc(-c3ccc(C(=O)NCC(=O)N4CCN(C(=O)[C@@H](NC(=O)[C@H](C)NC)C(C)(C)C)[C@H](C(=O)N[C@@H]5CCCc6ccccc65)C4)cc3)cc2)C[C@H]1C(=O)N[C@@H]1CCCc2ccccc21)C(C)(C)C [Compound 3] | – | – | < 100 nM |
| CN[C@@H](C)C(=O)N[C@H](C(=O)N1CCN(C(=O)CCCCCCCCC(=O)N2CCN(C(=O)[C@@H](NC(=O)[C@H](C)NC)C(C)(C)C)[C@H](C(=O)N[C@@H]3CCCc4ccccc43)C2)C[C@H]1C(=O)N[C@@H]1CCCc2ccccc21)C(C)(C)C [Compound 2] | < 50 nM | < 50 nM | – |
